Results from patent publication US20060258598A1, “Alpha-keto carbonyl calpain inhibitors” (priority 2003, published 2006).

Assays:
20S Proteasome = biological target: T1, 20S Proteasome (Oryctolagus cuniculus, UniProt G1T4Q9); assay: 20S Proteasome assay; assay type: biochemical, Rabbit; conditions: substrate Suc-Leu-Leu-Val-Tyr-AMC; read-out: 20S Prot IC50
T1 sequence (G1T4Q9 1-263): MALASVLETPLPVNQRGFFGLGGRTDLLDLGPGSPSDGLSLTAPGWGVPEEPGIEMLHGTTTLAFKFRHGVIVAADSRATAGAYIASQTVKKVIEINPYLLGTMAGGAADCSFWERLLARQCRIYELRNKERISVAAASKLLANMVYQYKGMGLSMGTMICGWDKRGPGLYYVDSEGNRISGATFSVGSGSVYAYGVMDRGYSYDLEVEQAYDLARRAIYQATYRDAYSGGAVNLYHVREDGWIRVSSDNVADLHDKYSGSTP
Method: 25 μl of a reaction buffer containing 400 μM of the fluorogenic substrate Suc-Leu-Leu-Val-Tyr-AMC (Bachem) are dispensed per well of a white microtiter plate. Test compounds dissolved in 0.5 μl DMSO are added. To start the reaction; 25 μl of reaction buffer containing 35 ng of enzyme (20S Proteasome, Rabbit, Calbiochem) are added. The increase in fluorescence (excitation at 360 nm; emission at 440 nm) is measured over 30 min at 30° C. at 30″. The IC50's are then determined from the slopes.

[1] = test system: Primary fibroblasts from donors with Friedreich Ataxia (FRDA); assay: BSO assay (cell viability under BSO-induced oxidative stress); assay type: cell-based, human; conditions: 24 h preincubation, 1 mM BSO
Summary of the method: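 FRDA patient primary fibroblasts were pretreated with compounds for 24 h, then exposed to 1 mM BSO (final) until toxicity appeared in BSO-only controls (typically 16–48 h). Viability was read by calcein AM (1.2 μM)/ethidium homodimer (4 μM) staining, 60 min RT, fluorescence 485/525 nm.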

human μ-calpain = biological target: T2, human μ-calpain (Homo sapiens, UniProt P07384); assay: Enzymatic calpain inhibition assay; assay type: biochemical; conditions: substrate Suc-Leu-Tyr-AMC, read-out: Calp I IC50
T2 construct: purchased Calbiochem
T2 sequence (P07384 1-714): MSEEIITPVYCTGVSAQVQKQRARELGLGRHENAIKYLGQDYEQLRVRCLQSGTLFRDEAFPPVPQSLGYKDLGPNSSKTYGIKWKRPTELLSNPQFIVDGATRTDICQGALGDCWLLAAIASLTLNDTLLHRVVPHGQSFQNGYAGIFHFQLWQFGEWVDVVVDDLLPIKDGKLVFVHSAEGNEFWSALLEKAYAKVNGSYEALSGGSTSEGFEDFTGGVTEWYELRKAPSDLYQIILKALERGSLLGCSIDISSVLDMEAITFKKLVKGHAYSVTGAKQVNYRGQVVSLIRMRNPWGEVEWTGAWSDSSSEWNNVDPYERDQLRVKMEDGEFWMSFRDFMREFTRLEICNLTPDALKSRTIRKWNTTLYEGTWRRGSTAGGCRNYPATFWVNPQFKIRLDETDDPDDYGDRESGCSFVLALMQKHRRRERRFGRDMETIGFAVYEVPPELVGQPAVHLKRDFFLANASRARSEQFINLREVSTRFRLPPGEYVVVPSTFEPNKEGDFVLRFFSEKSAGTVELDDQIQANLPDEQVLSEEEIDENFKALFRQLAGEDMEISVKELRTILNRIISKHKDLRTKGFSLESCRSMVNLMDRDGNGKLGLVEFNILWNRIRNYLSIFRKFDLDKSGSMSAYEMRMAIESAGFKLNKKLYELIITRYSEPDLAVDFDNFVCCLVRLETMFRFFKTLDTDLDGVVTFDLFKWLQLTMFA
T2 sequence (P04632 1-268 partner): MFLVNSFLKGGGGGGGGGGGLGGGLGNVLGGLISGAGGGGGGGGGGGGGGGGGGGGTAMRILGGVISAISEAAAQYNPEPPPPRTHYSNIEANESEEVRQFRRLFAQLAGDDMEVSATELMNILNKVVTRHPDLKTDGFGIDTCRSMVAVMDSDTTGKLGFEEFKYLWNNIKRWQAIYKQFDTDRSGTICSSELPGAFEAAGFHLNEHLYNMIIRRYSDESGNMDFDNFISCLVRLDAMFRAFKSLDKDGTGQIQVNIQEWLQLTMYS
Summary of the method: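 Human μ-calpain (0.5 μg) with 250 μM Suc-Leu-Tyr-AMC in 100 mM imidazole pH 7.5, 5 mM cysteine, 5 mM CaCl2. AMC fluorescence (ex 360/em 440 nm) followed 30 min at 30 °C; IC50 determined graphically from initial velocities versus inhibitor concentration.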

[2] = test system: cellular calpains in C2C12 myoblasts; assay: Calpain inhibition assay in C2C12 myoblasts; assay type: cell-based; conditions: 2 h incubation, calcium ionophore Br-A-23187, read-out: Calp I IC50 Myoblast
Summary of the method: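 Confluent C2C12 myoblasts in fusion medium (DMEM, 5% horse serum) exposed to compound for 2 h at 37 °C, then loaded with 400 μM Suc-Leu-Tyr-AMC for 20 min at room temperature in buffer with 4 mM CaCl2, HEPES pH 7.25. Calpains activated by Br-A-23187 ionophore (20 μM in added buffer); AMC fluorescence read each minute for 60 min at 37 °C to derive IC50.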

[3] = test system: experimental muscular dystrophy in hamster; conditions: cited from earlier work
mdx mouse = assay: Longterm treatment of mdx mice (model for Duchenne Muscular Dystrophy); assay type: in vivo; conditions: 3 week old mice, treatment period of 4 weeks
Method: The mdx mouse is a well established animal model for Duchenne Muscular Dystrophy (Bulfield G., Siller W. G., Wight P. A., Moore K. J., X chromosome-linked muscular dystrophy (mdx) in the mouse, Proc. Natl. Acad. Sci. USA., 1984, 81(4), 1189-1192). Selected compounds were tested in longterm treatments of mdx mice, according to the procedures described below.
Mouse strains: C57BL/10scsn and C57BL/10scsn mdx mouse strains were purchased at The Jackson Laboratory (ME, USA) and bred inhouse. Mouse males were sacrificed at the age of 3 or 7 weeks by CO2 asphyxiation.
Treatment: Compounds were dissolved in 50% PEG, 50% saline solution and applied by i.p. injection.
Histology: Tibialis anterior (TA) and diaphragm (Dia) muscles were collected and mounted on cork supports using gum tragacanth (Sigma-Aldrich, Germany). The samples were snap-frozen in melting isopentane and stored at −80° C. 12 μm thick cryosections of the mid-belly region of muscles were prepared. For staining, sections were air dried and fixed with 4% PFA in PBS for 5 minutes, washed 3 times with PBS and incubated over night at 4° C. in PBS containing 2 μg/ml Alexa Fluor™ 488 conjugated wheat-germ agglutinin (WGA-Alexa, Molecular Probes, Eugen, Oreg., USA) to stain membrane-bound and extracellular epitopes and 1 μg/ml 4′,6-diamidino-2-phenylindole (DAPI; Molecular Probes) to stain nuclei.
Image acquisition and analysis: Fluorescence microscopy images of both labels were acquired using a digital camera (ColorView II, Soft Imaging System, Munster, Germany) coupled to a fluorescence microscope (Vanox S, Olympus, Tokyo, Japan). Combination of these two stainings to a composite image, assembling of several images to a complete image of the entire muscle cross-section and further semi-automated analysis was performed using the image analysis program AnalySIS (Soft Imaging System). Image analysis of 1200-2900 muscle fibers in each section was performed in three steps: 1) determination of the muscle fiber boundaries, 2) determination of the muscle fiber size, and 3) determination of the percentage of muscle fibers containing centralized nuclei. Six different geometrical parameters were tested for the determination of the muscle fiber size: (a) the “minimal feret” (the minimum distance of parallel tangents at opposing borders of the muscle fiber), (b) the “area”, (c) the “minimal inner diameter” (the minimum diameter through the center of the muscle fiber), (d) the “minimal diameter” (the minimum diameter of a muscle fiber for angles in the range 0° through 179° with step width 1°, (e) the “minimal outer diameter” (the minimum diameter through the muscle fiber from outer border to outer border), and (f) the “perimeter”. The variance coefficient of the muscle fiber size is defined as follows: variance coefficient=(standard deviation of the muscle fiber size/mean of the muscle fiber size of the section)*1000. For statistical analysis of different variance coefficient values Mann-Whitney U test was used.
Selected Examples of the present invention were active in the mdx mouse model at 10 mg/kg/day, using 3 week old mice and a treatment period of 4 weeks (N=5−10).

| IC50 (20S Proteasome) [nM] | IC50 (human μ-calpain) [nM] | IC50 [2] [nM] | Molecule | EC50 ([1]; Homo sapiens, Fibroblast) [nM] | BSO EC50 [1] | life-prolonging effect [3] | activity in the mdx mouse model (mdx mouse) |
| --- | --- | --- | --- | --- | --- | --- | --- |
| 80 | 150 | 450 | Cc1ccc(S(=O)(=O)CNC(=O)C(=O)[C@H](Cc2ccccc2)NC(=O)[C@@H](NC(=O)CCCCC2CCSS2)C(C)C)cc1 (stereo partly drawn) [Example 140] | 500 | – | – | – |
| > 1000 | 20 | 2000 | CCNC(=O)C(=O)[C@H](Cc1ccc(Br)cc1)NC(=O)[C@H](CC(C)C)NC(=O)CCCCC1SC[C@@H]2NC(=O)N[C@H]12 (stereo partly drawn) [Example 164] | – | inactive | – | – |
| – | – | – | CCOC(=O)[C@H]1O[C@@H]1C(=O)N[C@@H](CC(C)C)C(=O)NCCC(C)C [Example E-64-d] | – | – | life-prolonging effect | – |

| Molecule | IC50 (20S Proteasome) [nM] | IC50 (human μ-calpain) [nM] | IC50 [2] [nM] | EC50 ([1]; Homo sapiens, Fibroblast) [nM] | BSO EC50 [1] | life-prolonging effect [3] | activity in the mdx mouse model (mdx mouse) |
| --- | --- | --- | --- | --- | --- | --- | --- |
| Z-Val-Phe-H [MDL-28170, reference compound] | > 1000 | – | 40000 | – | – | – | did not show statistically significant activity |
